Experiment [1] has as its system mutant eGFP gene in DLD-1-1 cells. Briefly: eGFP gene correction (oligonucleotide-directed sequence alteration) in DLD-1-1 cells, FACS readout. The class given is cell-based. The procedure:
Cell line and culture conditions: DLD-1 cells are obtained from ATCC (American Type Cell Culture, Manassas, Va.). DLD-1 integrated clone 1 (DLD-1-1) is obtained by integration of the vector pEGFP-N3 containing a single point mutation (TAG) in the eGFP gene, as described in copending U.S. patent application Ser. No. 10/986,418, filed Nov. 10, 2004 (“Mammalian Cell Lines for Detecting, Monitoring, and Optimizing Oligonucleotide-Mediated Chromosomal Sequence Alteration”). Cells are grown in RPMI 1640 medium with 2 mM glutamine, 4.5 g/L glucose, 10 mM HEPES, 1 mM sodium pyruvate and supplemented with 10% FBS. Cells are maintained at 5% CO2, 37° C. and under selection in 200 μg/ml G418 (Gibco, Invitrogen Co., Carlsbad, Calif.).
eGFP gene correction: Cells grown in complete medium supplemented with 10% FBS are trypsinized and harvested by centrifugation. The cell pellet is resuspended in serum-free medium at a density of 1×10^6 cells/100 μl and transferred to a 4 mm gap cuvette (Fisher Scientific, Pittsburgh, Pa.). The oligonucleotide is then added at a concentration of 4 μM and the cells are electroporated (LV, 250V, 13 msec, 2 pulses, 1 second interval) using a BTX ECM830 apparatus (BTX, Holliston, Mass.). The cells are then transferred to a 60 mm dish containing fresh medium supplemented with 10% FBS and incubated for 48 hrs at 37° C. before harvesting for FACS analysis.
The percentage of converted cells in a whole population is then calculated by CellQuest™ (Becton Dickinson) and GFP/PI programs. The correction efficiency is determined by dividing the number of eGFP positive cells by the number of cells analyzed in each experiment (usually 50,000 cells). Each clone is tested three times to determine the standard deviation of the correction efficiency, with standard deviation calculated using Microsoft Excel.
The experimental strategy involves the introduction of oligonucleotides into DLD-1-clone 1 cells by electroporation followed by phenotypic readout of the corrected eGFP gene, 48 hours later. The correcting oligonucleotide (EGFP3S/72NT) is 72 bases in length (72-mer), complementary to the non-transcribed strand of the mutant eGFP gene but designed to create a single mismatch in the third base of codon 67 (see FIG. 1A). It directs conversion of a TAG→TAC codon which enables phenotypic expression of eGFP, which can be detected by FACS. FIG. 1B outlines the sequence of the target gene, the 72-mer and a nonspecific 74-mer used as a control.
Oligonucleotide-Directed Sequence Alteration: The resulting synchronized populations of cells, and asynchronous controls, are grown in complete medium supplemented with 10% FBS and trypsinzed and harvested by centrifugation at 1500 rpm for 5 minutes. The cell pellet is resuspended in fresh serum-free medium at a density of 2×10^6 cells/100 μl. The entire cell suspension is mixed with 20 μg of EGFP/72NT and transferred into a 4 mm gap cuvette (Fisher Scientific, Pittsburgh, Pa., USA) followed by electroporation with two 250V pulses, each 13 ms in duration, with one second between pulses, unipolar.
Cells are incubated at room temperature for 30 min. […] Frequency of converted cells are calculated by CellQuest™ and GFP/PI programs.
Double Thymidine Block: Cells are synchronized in G1 or at the G1/S border by a double thymidine block. Twenty-four hours prior to the addition of any agent (HU, etc.), cells are plated at a density of 0.5×10^6 cells per 100 mm dish, followed by incubation in 2 mM thymidine (Sigma) for 16 hrs, washed and released in fresh medium for 10 hrs, then incubated in 2 mM thymidine for an additional 15 hrs.
FACS is then used to analyze 50,000 cells from each population to determine the percentage of cells expressing functional eGFP, as described in Example 1.

Experiment [2] relates to α-galactosidase A (GLA) activity in Fabry's cell line DMN-1. The experiment in a line: GLA activity in Fabry's cells after ODSA. It counts as cell-based, human. An excerpt: Cell line DMN-1, a human fibroblast cell line derived from a human patient with Fabry's disease, is obtained from the National Institutes of Health (NIH). These cells are used to measure the efficiency of correction of a mutant allele of α-galactosidase A (GLA) using methods of the present invention. The specific disease-causing mutation in the Fabry's cell line used herein is A143P, caused by a G→C mutation in the gene. See Branton et al., Medicine (Baltimore) (2002) 81(2): 122-38.
All four oligonucleotides are used to effect ODSA substantially as described in Example 1, with the exception that cells are transfected with oligonucleotides, rather than electroporated. Oligos are added at 5 μg, 10 μg or 30 μg per reaction. After ODSA is performed, cells are cultured and assayed for GLA activity according to the method of Brady, as described in Medin et al., Proc. Natl. Acad. Sci. (USA) (1996) 93:7917-22, the disclosure of which is incorporated herein by reference in its entirety. The GLA activity is used as a measure of gene correction by comparing the activities in treated versus untreated cultures. The correction efficiency is subsequently confirmed by sequencing of the locus of mutation in a number of treated cells.
[…] Unlike the experiments involving correction of eGFP in DLD-1-1 cells described in Example 1, however, certain of the agents (VPA, caffeine, TSA) in the experiments in this example are not added before transfection, but are instead added only after transfection, during the recovery period.
The means of introducing oligonucleotide into the target cells also differs from previous examples, with transfection in the presence of the transfection enhancing agent FuGENE™ 6 (FG) (Roche Diagnostics Corp., Indianapolis, Ind., USA) being used rather than electroporation. Each transfection reaction includes 100 μl of target cells and 12 μl of FG unless otherwise indicated, despite the fact that FG is not explicitly listed for each datapoint in the relevant figures. Otherwise the procedures used in the DLD-1-1 experiments and the Fabry's experiments are similar.
The results of a further series of experiments are shown at FIG. 15D, where the data are presented as GLA activity as nanomolar (nM) concentration of the product of the GLA assay generated per hour per unit protein concentration (as are the data in FIGS. D and E).

Experiment [3] relates to homologous recombination (HR). As to conditions: via inhibition of ATM kinase / p53 ser-15 phosphorylation; cited from earlier work.

“Also recorded” adds a separate entry of the source.

On to `Cn1c(=O)c2c(ncn2C)n(C)c1=O` [caffeine], for which the “effect on correction efficiency, recovery phase” value in experiment [1] (4 mM caffeine after electroporation, up to 48 hrs) is listed as “dramatically increases correction efficiency; also recorded: stimulates correction; also recorded: the greater the enhancement of correction efficiency”. The “effect on MMS-enhanced correction” value in experiment [1] (4 mM caffeine in addition to 0.2 μM MMS) is “completely suppressing the enhancement otherwise caused by MMS”. The “effect on correction efficiency” value in experiment [1] (4 mM caffeine pre-treatment, with or without 0.2 μM MMS) is given as “lower than the control experiment; also recorded: ineffective at increasing the efficiency of gene repair”. The “effect on correction efficiency, pretreatment” value in experiment [1] (4 mM caffeine prior to electroporation) is “decreases correction efficiency; also recorded: inhibits oligonucleotide-directed gene correction; also recorded: reduction in basal repair levels”. For the same compound, the correction levels in experiment [1] (caffeine added to ddC-treated cells, pretreatment (FIG. 20)) is 0.6%. Moreover, the “effect on ddC-stimulated gene repair” value in experiment [1] (inhibitor added with ddC before electroporation (FIG. 20)) is on record as “blocks the stimulation in gene repair caused by ddC treatment; also recorded: knocks down correction induced by ddC”. In addition, the “effect on GLA activity” value in experiment [2] (synchronized cells treated with 0.3 mM HU, 4 mM caffeine during recovery period) was “modest effect on GLA activity”. Besides, in experiment [2] (synchronized cells, 500 μM ddC, 4 mM caffeine or 100 ng/ml TSA during recovery period), the “effect on ddC-enhanced GLA activity” value is “eliminate the ability of 500 μM ddC to enhance GLA activity”. The “reduction of the level of HR” value in experiment [3] was 60-90%.

The values are drawn from patent US20070072815A1, “Methods and kits to increase the efficiency of oligonucleotide-directed nucleic acid sequence alteration” (priority 2004, published 2007).
